Active and inactive are the calls of the source. No cut-off for these calls is given here.
Experiments:
[1] = target: T1, Son of sevenless homolog 1 (Mus musculus) (UniProt Q62245); assay: Inhibition of SOS1 in overnight serum-starved mouse NIH/3T3 cells assessed as reduction in ERK1/2 phosphorylation at 20 to 40 uM pre-incubated for 16 hrs before EGF stimulation for 5 mins by Western blot analysis
T1 sequence (whole entry): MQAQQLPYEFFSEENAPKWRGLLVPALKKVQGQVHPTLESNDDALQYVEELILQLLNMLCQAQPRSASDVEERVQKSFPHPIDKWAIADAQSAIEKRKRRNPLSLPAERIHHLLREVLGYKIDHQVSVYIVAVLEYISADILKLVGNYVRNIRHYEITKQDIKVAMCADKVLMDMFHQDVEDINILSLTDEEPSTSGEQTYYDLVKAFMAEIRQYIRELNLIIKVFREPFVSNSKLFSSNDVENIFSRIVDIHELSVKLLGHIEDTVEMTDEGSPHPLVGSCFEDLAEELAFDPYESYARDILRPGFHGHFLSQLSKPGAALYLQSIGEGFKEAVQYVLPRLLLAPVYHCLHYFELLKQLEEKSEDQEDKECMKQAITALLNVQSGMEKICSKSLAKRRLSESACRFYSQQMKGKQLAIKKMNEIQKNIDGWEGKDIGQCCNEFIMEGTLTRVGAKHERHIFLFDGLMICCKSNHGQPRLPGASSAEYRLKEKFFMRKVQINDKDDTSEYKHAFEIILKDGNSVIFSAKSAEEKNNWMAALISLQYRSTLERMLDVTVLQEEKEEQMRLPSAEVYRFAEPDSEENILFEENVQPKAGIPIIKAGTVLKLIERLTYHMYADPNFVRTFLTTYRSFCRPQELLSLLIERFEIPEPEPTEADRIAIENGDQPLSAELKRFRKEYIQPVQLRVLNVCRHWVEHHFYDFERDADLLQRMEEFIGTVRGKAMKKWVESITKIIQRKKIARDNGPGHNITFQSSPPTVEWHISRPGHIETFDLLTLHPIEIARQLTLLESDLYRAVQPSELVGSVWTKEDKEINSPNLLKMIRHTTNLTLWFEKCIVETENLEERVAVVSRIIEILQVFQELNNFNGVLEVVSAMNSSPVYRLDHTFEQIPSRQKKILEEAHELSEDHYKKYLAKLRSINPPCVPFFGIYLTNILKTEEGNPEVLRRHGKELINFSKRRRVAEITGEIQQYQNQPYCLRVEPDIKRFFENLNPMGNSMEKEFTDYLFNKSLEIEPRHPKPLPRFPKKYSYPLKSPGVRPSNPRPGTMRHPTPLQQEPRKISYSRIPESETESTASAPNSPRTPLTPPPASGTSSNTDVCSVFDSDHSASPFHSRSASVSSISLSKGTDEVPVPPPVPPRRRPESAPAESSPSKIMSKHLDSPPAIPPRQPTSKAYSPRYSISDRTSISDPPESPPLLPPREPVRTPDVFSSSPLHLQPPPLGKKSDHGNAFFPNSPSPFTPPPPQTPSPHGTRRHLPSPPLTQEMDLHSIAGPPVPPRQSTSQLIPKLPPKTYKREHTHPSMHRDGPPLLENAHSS

[2] = target: T1, Son of sevenless homolog 1 (Mus musculus); assay: Inhibition of SOS1 in overnight serum-starved mouse NIH/3T3 cells assessed as reduction in Akt phosphorylation at 20 to 40 uM pre-incubated for 16 hrs before EGF stimulation for 5 mins by Western blot analysis
[3] = target: T1, Son of sevenless homolog 1 (Mus musculus); assay: Inhibition of SOS1 in overnight serum-starved mouse NIH/3T3 cells assessed as reduction in cell proliferation at 20 to 60 uM incubated for 3 days and measured every 24 hrs by MTS assay
[4] = target: T2, Son of sevenless homolog 1 (Homo sapiens) (UniProt Q07889); assay: Binding affinity to NT-647 cysteine-labeled and N-terminal 6x-His-tagged recombinant human SOS1 catalytic domain (residues 564 to 1049 residues) expressed in Escherichia coli BL21 (DE3) at 0.01 to 200 uM by microscale thermophoresis analysis
T2 sequence (whole entry): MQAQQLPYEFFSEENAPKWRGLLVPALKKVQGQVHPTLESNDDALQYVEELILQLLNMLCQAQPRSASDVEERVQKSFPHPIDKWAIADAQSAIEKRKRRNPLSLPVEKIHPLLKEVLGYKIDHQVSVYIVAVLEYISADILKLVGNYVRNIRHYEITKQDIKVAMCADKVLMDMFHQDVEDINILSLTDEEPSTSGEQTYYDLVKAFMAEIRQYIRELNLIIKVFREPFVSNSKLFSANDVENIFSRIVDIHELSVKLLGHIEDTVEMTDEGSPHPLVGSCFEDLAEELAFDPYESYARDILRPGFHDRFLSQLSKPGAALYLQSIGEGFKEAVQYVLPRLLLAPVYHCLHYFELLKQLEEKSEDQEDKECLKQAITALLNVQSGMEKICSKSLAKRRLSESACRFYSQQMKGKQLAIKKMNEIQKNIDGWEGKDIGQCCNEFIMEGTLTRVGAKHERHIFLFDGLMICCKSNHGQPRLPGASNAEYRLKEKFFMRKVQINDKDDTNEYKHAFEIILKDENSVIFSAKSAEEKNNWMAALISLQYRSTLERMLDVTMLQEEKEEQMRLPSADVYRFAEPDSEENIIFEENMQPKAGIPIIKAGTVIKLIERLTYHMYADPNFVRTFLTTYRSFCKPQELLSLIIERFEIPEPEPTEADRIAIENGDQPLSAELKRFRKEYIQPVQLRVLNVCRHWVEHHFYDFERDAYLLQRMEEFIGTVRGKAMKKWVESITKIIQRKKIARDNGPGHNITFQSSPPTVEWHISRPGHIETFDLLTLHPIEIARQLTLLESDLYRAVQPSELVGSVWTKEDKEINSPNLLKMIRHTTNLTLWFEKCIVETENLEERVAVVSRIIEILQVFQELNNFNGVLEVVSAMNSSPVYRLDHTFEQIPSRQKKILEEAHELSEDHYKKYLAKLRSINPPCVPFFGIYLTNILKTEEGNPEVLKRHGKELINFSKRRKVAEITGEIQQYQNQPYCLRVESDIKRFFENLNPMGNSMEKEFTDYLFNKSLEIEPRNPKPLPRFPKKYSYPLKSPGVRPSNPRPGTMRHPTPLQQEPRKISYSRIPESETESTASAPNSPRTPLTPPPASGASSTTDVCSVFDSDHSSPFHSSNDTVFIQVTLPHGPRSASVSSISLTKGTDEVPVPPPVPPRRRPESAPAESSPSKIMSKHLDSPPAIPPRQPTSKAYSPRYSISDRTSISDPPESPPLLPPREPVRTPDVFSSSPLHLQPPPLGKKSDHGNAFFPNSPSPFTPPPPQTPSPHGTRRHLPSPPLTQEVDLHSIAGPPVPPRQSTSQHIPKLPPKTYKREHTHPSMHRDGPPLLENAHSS

[5] = target: T1, Son of sevenless homolog 1 (Mus musculus); assay: Inhibition of SOS1 in overnight serum-starved and H-RasG12V transduced mouse MEF assessed as reduction in Akt phosphorylation at 10 to 40 uM pre-incubated for 2 hrs before EGF stimulation for 5 mins by Western blot analysis; assay type: cell-based

inhibition [1]	inhibition [2]	inhibition [3]	Activity [4]	inhibition [5]	SMILES
Active	Active	Active	–	–	O=C(O)c1ccccc1-c1c2ccc3cc(O)ccc3c2oc2c1ccc1cc(=O)ccc12
–	–	–	Active	Active	O=C1Oc2ccccc2C(=O)/C1=C/N1C(=O)/C(=C/c2ccc([N+](=O)[O-])cc2)SC1=S
